Reference: the NIST ThermoML archive (doi:10.1016/j.jct.2006.07.025)

Test: xn = mol fraction of the nth substance listed
Settings: for surface tension liquid-gas: Pendant drop shape; for mass density: 101 kPa, Liquid, Vibrating tube method

Cc1ccc(C)c(C)c1 [1,2,4-trimethylbenzene] + CCCCOC(C)=O
Settings | mass density [kg/m3] | surface tension liquid-gas [mN/m]
298.15 K, x2 = 0 | 871.66 | 29.17
298.15 K, x2 = 0.0563 | 871.92 | –
298.15 K, x2 = 0.0998 | – | 28.68
298.15 K, x2 = 0.1045 | 872.14 | –
298.15 K, x2 = 0.1496 | 872.35 | –
298.15 K, x2 = 0.1996 | 872.58 | –
298.15 K, x2 = 0.2001 | – | 28.2
298.15 K, x2 = 0.2533 | 872.82 | –
298.15 K, x2 = 0.2994 | – | 27.73
298.15 K, x2 = 0.2998 | 873.03 | –
298.15 K, x2 = 0.3552 | 873.27 | –
298.15 K, x2 = 0.3998 | 873.46 | –
298.15 K, x2 = 0.4003 | – | 27.25
298.15 K, x2 = 0.45 | 873.68 | –
298.15 K, x2 = 0.4958 | – | 26.78
298.15 K, x2 = 0.5001 | 873.9 | –
298.15 K, x2 = 0.5503 | 874.11 | –
298.15 K, x2 = 0.5995 | 874.32 | –
298.15 K, x2 = 0.6001 | – | 26.33
298.15 K, x2 = 0.6495 | 874.54 | –
298.15 K, x2 = 0.6998 | 874.75 | –
298.15 K, x2 = 0.6999 | – | 25.93
298.15 K, x2 = 0.7495 | 874.97 | –
298.15 K, x2 = 0.7998 | – | 25.57
298.15 K, x2 = 0.7999 | 875.2 | –
298.15 K, x2 = 0.8499 | 875.43 | –
298.15 K, x2 = 0.8989 | 875.67 | –
298.15 K, x2 = 0.8997 | – | 25.23
298.15 K, x2 = 0.9478 | 875.91 | –
303.15 K, x2 = 0 | 867.61 | 28.67
303.15 K, x2 = 0.1001 | 867.99 | 28.18
303.15 K, x2 = 0.2009 | 868.38 | 27.69
303.15 K, x2 = 0.3006 | 868.73 | 27.22
303.15 K, x2 = 0.4001 | 869.1 | 26.73
303.15 K, x2 = 0.5004 | 869.45 | 26.27
303.15 K, x2 = 0.6006 | 869.81 | 25.8
303.15 K, x2 = 0.7001 | 870.15 | 25.4
303.15 K, x2 = 0.7997 | 870.43 | 25.03
303.15 K, x2 = 0.9 | 870.91 | 24.7
308.15 K, x2 = 0 | 863.59 | 28.17
308.15 K, x2 = 0.1005 | 863.87 | 27.67
308.15 K, x2 = 0.1998 | 864.16 | 27.18
308.15 K, x2 = 0.3004 | 864.42 | 26.7
308.15 K, x2 = 0.4003 | 864.67 | 26.21
308.15 K, x2 = 0.5007 | 864.93 | 25.75
308.15 K, x2 = 0.5991 | 865.17 | 25.28
308.15 K, x2 = 0.6995 | 865.43 | 24.87
308.15 K, x2 = 0.7999 | 865.68 | 24.5
308.15 K, x2 = 0.9004 | 865.94 | 24.16
313.15 K, x2 = 0 | 859.54 | 27.67
313.15 K, x2 = 0.0499 | 859.66 | –
313.15 K, x2 = 0.1002 | 859.76 | 27.12
313.15 K, x2 = 0.1503 | 859.87 | –
313.15 K, x2 = 0.1995 | 859.98 | 26.55
313.15 K, x2 = 0.25 | 860.08 | –
313.15 K, x2 = 0.3 | 860.19 | 26.02
313.15 K, x2 = 0.35 | 860.28 | –
313.15 K, x2 = 0.3996 | 860.37 | 25.48
313.15 K, x2 = 0.4499 | 860.46 | –
313.15 K, x2 = 0.5002 | 860.56 | 24.99
313.15 K, x2 = 0.5499 | 860.65 | –
313.15 K, x2 = 0.5998 | 860.73 | 24.55
313.15 K, x2 = 0.6503 | 860.82 | –
313.15 K, x2 = 0.6999 | 860.91 | 24.2
313.15 K, x2 = 0.7499 | 861.01 | –
313.15 K, x2 = 0.8004 | 861.1 | 23.9
313.15 K, x2 = 0.85 | 861.21 | –
313.15 K, x2 = 0.9005 | 861.33 | 23.62
313.15 K, x2 = 0.9496 | 861.45 | –

Cc1cc(C)cc(C)c1 [1,3,5-trimethylbenzene] + CCCOC(C)=O
Settings | mass density [kg/m3] | surface tension liquid-gas [mN/m]
298.15 K, x2 = 0 | 861.04 | 28.09
298.15 K, x2 = 0.0498 | 861.7 | –
298.15 K, x2 = 0.0996 | 862.38 | 27.63
298.15 K, x2 = 0.1504 | 863.1 | –
298.15 K, x2 = 0.2006 | 863.85 | 27.16
298.15 K, x2 = 0.2502 | 864.63 | –
298.15 K, x2 = 0.3006 | 865.46 | 26.7
298.15 K, x2 = 0.3499 | 866.32 | –
298.15 K, x2 = 0.4003 | 867.23 | 26.27
298.15 K, x2 = 0.4498 | 868.17 | –
298.15 K, x2 = 0.4985 | 869.14 | 25.85
298.15 K, x2 = 0.5526 | 870.28 | –
298.15 K, x2 = 0.6001 | 871.33 | 25.46
298.15 K, x2 = 0.65 | 872.49 | –
298.15 K, x2 = 0.6987 | 873.7 | 25.09
298.15 K, x2 = 0.7369 | 874.66 | –
298.15 K, x2 = 0.7983 | 876.31 | 24.73
298.15 K, x2 = 0.8504 | 877.83 | –
298.15 K, x2 = 0.8995 | 879.31 | 24.35
298.15 K, x2 = 0.9397 | 880.63 | –
303.15 K, x2 = 0 | 856.96 | 27.67
303.15 K, x2 = 0.1 | 857.96 | 27.18
303.15 K, x2 = 0.2012 | 859.34 | 26.69
303.15 K, x2 = 0.2995 | 860.81 | 26.2
303.15 K, x2 = 0.3998 | 862.5 | 25.74
303.15 K, x2 = 0.4996 | 864.32 | 25.3
303.15 K, x2 = 0.6004 | 866.41 | 24.9
303.15 K, x2 = 0.7007 | 868.63 | 24.5
303.15 K, x2 = 0.7987 | 871.2 | 24.12
303.15 K, x2 = 0.9009 | 874.11 | 23.73
308.15 K, x2 = 0 | 852.84 | 27.24
308.15 K, x2 = 0.0985 | 853.66 | 26.73
308.15 K, x2 = 0.1992 | 854.81 | 26.2
308.15 K, x2 = 0.3018 | 856.13 | 25.69
308.15 K, x2 = 0.3991 | 857.53 | 25.21
308.15 K, x2 = 0.5009 | 859.15 | 24.75
308.15 K, x2 = 0.6012 | 861.08 | 24.33
308.15 K, x2 = 0.6997 | 863.19 | 23.91
308.15 K, x2 = 0.7983 | 865.52 | 23.52
308.15 K, x2 = 0.8997 | 868.19 | 23.11
313.15 K, x2 = 0 | 848.74 | 26.82
313.15 K, x2 = 0.0503 | 848.97 | –
313.15 K, x2 = 0.1004 | 849.28 | 26.28
313.15 K, x2 = 0.1501 | 849.65 | –
313.15 K, x2 = 0.1999 | 850.05 | 25.73
313.15 K, x2 = 0.2499 | 850.49 | –
313.15 K, x2 = 0.3004 | 851.02 | 25.19
313.15 K, x2 = 0.3502 | 851.58 | –
313.15 K, x2 = 0.3998 | 852.18 | 24.69
313.15 K, x2 = 0.449 | 852.83 | –
313.15 K, x2 = 0.5001 | 853.57 | 24.21
313.15 K, x2 = 0.5502 | 854.4 | –
313.15 K, x2 = 0.6 | 855.29 | 23.76
313.15 K, x2 = 0.6503 | 856.26 | –
313.15 K, x2 = 0.7005 | 857.33 | 23.33
313.15 K, x2 = 0.7499 | 858.44 | –
313.15 K, x2 = 0.8003 | 859.87 | 22.92
313.15 K, x2 = 0.8499 | 861.27 | –
313.15 K, x2 = 0.9003 | 862.85 | 22.5
313.15 K, x2 = 0.9504 | 864.3 | –
